Target: PARP-1 enzyme (Homo sapiens (Human), UniProt P09874)
Assay: PARP enzyme activity assay (HT Universal Chemiluminescent PARP Assay Kit, histone-coated wells)
Assay type: biochemical
Conditions: for inhibition at 0.03 µM: read-out: Inhibition (%) at 30 nM; for inhibition at 0.1 µM: read-out: Inhibition (%) at 100 nM
Experimental: PARP is an enzyme responsible for post-translational modification, which may be activated by means of DNA damage. The process catalyzed by PARP in vivo is mainly NAD-dependent poly(ADP-ribosyl)ation, in which the substrates are mainly some nuclear proteins including PARP, one example of which is histone. In the present invention, the PARP activity is assayed by determining the poly(ADP-ribosyl)ation degree of histone coated in a 96-well plate in the presence of NAD, and the PARP activity under the action of a PARP inhibitor is correspondingly assayed, thereby evaluating the degree of inhibition of the compounds on PARP activity. Poly(ADP-ribosyl)ation of nuclear proteins is a post-translational modification occurred in response to DNA damage. PARP is the abbreviation of poly(ADP-ribose)polymerase, which catalyzes the attachment of poly(ADP-ribose) to an adjacent nuclear protein in the presence of NAD, thus eliciting a mechanism of DNA repair through base excision repair pathway. The level of biotin-labeled ADP-ribose binding to histone can be detected by using the HT Universal Chemiluminescent PARP Assay Kit commercially available from Trevigen Corp. […] HT Universal Chemiluminescent PARP Assay Kit with Histone-coated Strip Wells, commercially available from Trevigen (US), Catalog #: 4676-096-K. […] 4. The PARP enzyme was carefully diluted with the 1×PARP buffer just before use, the diluted enzyme solution should be used as quickly as possible and the remaining solution should be discarded. […] 2. […] 1. […] 2. […] 4. […] After washing, equal volume of the PeroxyGlow A and B solutions were uniformly mixed, 100 μl of the solution was added to each well, and the chemiluminescent signals were recorded on a plate reader immediately. The readout of each well is converted into the percent inhibition. […] Note: the readout of the positive control well is designated as 100% enzyme activity; the readout of the negative control well is designated as 0% enzyme activity; and the activity X refers to the readout from respective concentration of each sample.

PARP-1 enzyme, sequence (P09874 whole entry): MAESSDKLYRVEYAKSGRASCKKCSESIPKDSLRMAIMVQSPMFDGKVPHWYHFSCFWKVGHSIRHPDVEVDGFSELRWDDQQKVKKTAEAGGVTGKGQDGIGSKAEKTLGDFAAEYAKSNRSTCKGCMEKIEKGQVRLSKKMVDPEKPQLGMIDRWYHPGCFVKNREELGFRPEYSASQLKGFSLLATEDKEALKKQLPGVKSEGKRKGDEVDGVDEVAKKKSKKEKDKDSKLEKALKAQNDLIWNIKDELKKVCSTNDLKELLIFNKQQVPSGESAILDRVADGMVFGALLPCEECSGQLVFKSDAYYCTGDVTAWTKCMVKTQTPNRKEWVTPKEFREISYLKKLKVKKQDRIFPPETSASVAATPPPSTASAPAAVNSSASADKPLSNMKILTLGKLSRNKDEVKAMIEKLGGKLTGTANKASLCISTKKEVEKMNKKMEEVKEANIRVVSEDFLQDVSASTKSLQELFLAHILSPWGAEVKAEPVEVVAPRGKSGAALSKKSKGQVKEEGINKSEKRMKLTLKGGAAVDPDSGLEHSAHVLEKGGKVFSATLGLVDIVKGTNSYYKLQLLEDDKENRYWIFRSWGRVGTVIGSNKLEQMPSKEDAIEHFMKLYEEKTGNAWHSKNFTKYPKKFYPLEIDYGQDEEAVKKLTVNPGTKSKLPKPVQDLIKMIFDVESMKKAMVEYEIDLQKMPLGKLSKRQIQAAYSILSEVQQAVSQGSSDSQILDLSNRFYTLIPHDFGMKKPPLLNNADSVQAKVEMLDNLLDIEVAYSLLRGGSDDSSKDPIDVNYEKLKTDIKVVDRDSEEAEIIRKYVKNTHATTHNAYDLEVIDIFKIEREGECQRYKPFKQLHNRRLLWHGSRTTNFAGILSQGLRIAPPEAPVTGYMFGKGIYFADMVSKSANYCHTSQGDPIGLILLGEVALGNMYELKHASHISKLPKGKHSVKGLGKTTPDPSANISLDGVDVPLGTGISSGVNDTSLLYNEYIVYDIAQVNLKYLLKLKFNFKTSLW

NC(=O)c1cc(F)cc2[nH]c(N3CCN(c4cnc(C(F)(F)F)cn4)CC3)nc12 [Compound (35), 6-fluoro-2-(4-(5-trifluoromethylpyrazin-2-yl)piperazin-1-yl)-1H-benzimidazole-4-carboxamide]
inhibition at 0.03 µM: 76%
inhibition at 0.1 µM: 91%

NC(=O)c1cccc2[nH]c(N3CCN(c4ccnc(C(F)(F)F)c4)CC3)nc12 [Compound (13), 2-(4-(2-trifluoromethylpyridin-4-yl)piperazin-1-yl)-1H-benzimidazole-4-carboxamide]
inhibition at 0.03 µM: 43%
inhibition at 0.1 µM: 69%

CC(C)(C)NC(=O)c1cnc(N2CCN(c3nc4c(C(N)=O)cc(F)cc4[nH]3)CC2)cn1 [Compound (28), 2-(4-(5-t-butylcarbamoylpyrazin-2-yl)piperazin-1-yl)-6-fluoro-1H-benzimidazole-4-carboxamide]
inhibition at 0.03 µM: 53%
inhibition at 0.1 µM: 78%

CCNc1cnc(N2CCN(c3nc4c(C(N)=O)cccc4[nH]3)CC2)nc1 [Compound (3), 2-(4-(5-ethylaminopyrimidin-2-yl)piperazin-1-yl)-1H-benzimidazole-4-carboxamide]
inhibition at 0.03 µM: 6%
inhibition at 0.1 µM: 13%

CN(C)C(=O)c1ncc(N2CCN(c3nc4c(C(N)=O)cc(F)cc4[nH]3)CC2)cn1 [Compound (41), 2-(4-(2-dimethylcarbamoylpyrimidin-5-yl)piperazin-1-yl)-6-fluoro-1H-benzimidazole-4-carboxamide]
inhibition at 0.03 µM: 75%
inhibition at 0.1 µM: 92%

NC(=O)c1cc(F)cc2[nH]c(N3CCN(c4ncc(F)cn4)CC3)nc12 [Compound (17), 6-fluoro-2-(4-(5-fluoropyrimidin-2-yl)piperazin-1-yl)-1H-benzimidazole-4-carboxamide]
inhibition at 0.03 µM: 56%
inhibition at 0.1 µM: 78%

NC(=O)c1cccc2[nH]c(N3CCN(c4ncc(N)cn4)CC3)nc12 [Compound (6), 2-(4-(5-aminopyrimidin-2-yl)piperazin-1-yl)-1H-benzimidazole-4-carboxamide]
inhibition at 0.03 µM: 26%
inhibition at 0.1 µM: 54%

N#Cc1cnc(N2CCN(c3nc4c(C(N)=O)cc(F)cc4[nH]3)CC2)nc1 [Compound (19), 2-(4-(5-cyanopyrimidin-2-yl)piperazin-1-yl)-6-fluoro-1H-benzimidazole-4-carboxamide]
inhibition at 0.03 µM: 77%
inhibition at 0.1 µM: 93%

NC(=O)c1cccc2[nH]c(N3CCN(c4nccc(C(F)(F)F)n4)CC3)nc12 [Compound (9), 2-(4-(4-trifluoromethylpyrimidin-2-yl)piperazin-1-yl)-1H-benzimidazole-4-carboxamide]
inhibition at 0.03 µM: 16%
inhibition at 0.1 µM: 31%

COc1cnc(N2CCN(c3nc4c(C(N)=O)cccc4[nH]3)CC2)nc1 [Compound (5), 2-(4-(5-methoxypyrimidin-2-yl)piperazin-1-yl)-1H-benzimidazole-4-carboxamide]
inhibition at 0.03 µM: 32%
inhibition at 0.1 µM: 60%

CN(C)C(=O)c1ccc(N2CCN(c3nc4c(C(N)=O)cccc4[nH]3)CC2)nc1 [Compound (15), 2-(4-(5-dimethylcarbamoylpyridin-2-yl)piperazin-1-yl)-1H-benzimidazole-4-carboxamide]
inhibition at 0.03 µM: 44%
inhibition at 0.1 µM: 70%
